# Assay results taken from patent publication US20260116957A1, “PHARMACEUTICAL COMPOSITION FOR AMELIORATING ACUTE LUNG INJURY AND ACUTE WORSENING OF PULMONARY FIBROSIS” (priority 2021, published 2026).
# Like-named read-outs stand apart in the source and are kept apart here. Residues, ends and D or L forms follow the SMILES beside them.
# Assays:
# [1] = test system: A549 alveolar epithelial cells; assay: Apoptosis assay of A549 cells (flow cytometry, annexin V / propidium iodide); format: cell-based, human; conditions: for concentration at which apoptotic activity is shown: synthetic corisin; for apoptotic activity compared with the parent corisin sequence: single amino acid mutants, FIG. 35
# [2] = test system: A549 alveolar epithelial cells; assay: RT-PCR of mRNA expression of pro-apoptotic and anti-apoptotic factors; format: cell-based, human; conditions: 50 μM corisin, 24 hours, vs scrambled peptides
# Description: Next, the effect of corisin on mRNA expression of markers for pro-apoptotic factors such as Bax and anti-apoptotic factors BIRC1, BIRC5, BIRC7, Bcl2, BclXL, cyclin D1, proliferating cell nuclear antigens, and proliferating Ki-67 were examined. A549 alveolar epithelial cells were cultured in the presence of 50 μM corisin for 24 hours, total mRNA was extracted, and cDNA was prepared and amplified by RT-PCR.
# [3] = test system: TGFβ1 TG mice with pulmonary fibrosis; assay: Corisin-induced acute exacerbation of pulmonary fibrosis in TGFβ1 TG mice; format: in vivo, mouse; conditions: TGFβ1 TG mice with fibrosis treated with isotype antibody
# Description: Next, TGFβ1 TG mice with pulmonary fibrosis were then assigned to two groups having corresponding computed tomography (CT) scan scores (FIG. 18a, b). CT examinations were performed as follows.
# Lung CT was performed using a LaTheta LCT-200 micro CT purchased from Hitachi Aloka Medical (Tokyo, Japan). Mice were anesthetized by inhalation of isoflurane and then placed in the prone position to collect data (Non-Patent Literature 19, Reference Literature 61). Seven to nine specialists in pulmonary radiology, blinded to treatment groups, scored the CT findings on the TGFβ1 TG mice with pulmonary fibrosis based on previously reported and validated criteria as follows. Score 1, Normal lung findings; score 2, interim findings; score 3, mild pulmonary fibrosis; score 4, interim findings; score 5, moderate pulmonary fibrosis; score 6, interim findings; and score 7, progressive pulmonary fibrosis (Non-Patent Literature 19). The same criteria were used to score pulmonary inflammation and fibrosis in a BLM-induced pulmonary fibrosis mouse model (FIG. 21b).
# A group of fibrosis-free TGFβ1 TG mice administered intratracheal corisin served as a control (FIG. 18a, b). […]
# [4] = test system: mice with bleomycin-induced pulmonary fibrosis; assay: Intratracheal corisin in mice with bleomycin-induced pulmonary fibrosis; format: in vivo, mouse; conditions: for CT scores after intratracheal corisin: 300 pg/mouse on day 20
# Excerpt: AE-Inducing Action of Corisin in Bleomycin-Induced Pulmonary Fibrosis Bleomycin (BLM)-induced pulmonary fibrosis in mice or rats is the most characterized and commonly used preclinical model for IPF studies (Reference Literature 28). It is unclear whether corisin exacerbates disease in BLM-induced pulmonary fibrosis. To address this question, an experimental model was developed in wild-type (WT) mice by infusing BLM via osmotic minipumps and administering corisin via intratracheal instillation (FIG. 21a). Bleomycin (BLM) or physiological saline (SAL) was infused from osmotic minipumps implanted subcutaneously in the backs of mice according to the experiment schedule for inducing acute exacerbation in mice with bleomycin-induced pulmonary fibrosis shown in FIG. 21a. Computed tomography (CT) scans were performed before and after intratracheal administration of corisin or a scrambled peptide before mouse euthanasia. Mice administered SAL via osmotic minipumps and intratracheal corisin or a scrambled peptide were used as a control. Mice were euthanized 22 days after BLM or SAL pump implantation.
# After confirming pulmonary fibrosis onset by chest CT, autologous CT score criteria (FIG. 21b) were used to assign mice into two groups with concordant CT scores.
# Wild-type (WT) mice were administered bleomycin (BLM) by osmotic minipump on day 0 and intratracheally instilled (75 μL) with corisin or a scrambled peptide (300 pg/mouse) on day 20 post-pump implantation. CTs were performed as described in Example 2. […] Next, wild-type (WT) mice were administered physiological saline (SAL) by osmotic minipump on day 0 and intratracheally instilled (75 μL) with corisin or a scrambled peptide (300 pg/mouse) on day 20 post-pump implantation.
# Next, inflammatory cells and the like in mice with BLM-induced pulmonary fibrosis which had been administered intratracheal corisin were examined. Wild-type (WT) mice were administered bleomycin (BLM) or physiological saline (SAL) by osmotic minipump on day 0 and intratracheally instilled (75 μL) with corisin or a scrambled peptide ([…]) on day 20 post-pump implantation. BALF total cell counts were determined using a NucleoCounter and cell fraction counts were conducted after Giemsa staining using WindRoof image software. Levels of serum amyloid P component (SAP), MUC-1, monocyte chemoattractant protein-1 (MCP-1), periostin, collagen I, and osteopontin were measured by enzyme immunoassay according to the manufacturer's instructions.
# Next, caspase-3 cleavage was evaluated by Western blotting and quantified. […] Collagen deposition was evaluated using Masson's trichrome staining and quantified using WindRoof imaging software. Pulmonary tissue content of hydroxyproline was measured by colorimetric analysis using a commercially available kit in accordance with the manufacturer's instructions. […] These findings indicate that corisin also exacerbates disease in BLM-induced pulmonary fibrosis.
# [5] = test system: Caki-2, HaCaT, ARPE-19, Caco-2, HIEC-6 and ihPOD cells; assay: Caspase-3 cleavage by Western blotting in further epithelial cell lines; format: cell-based, human; conditions: 10 μg/mL peptide, 24 hours, all cell lines, vs scrambled peptide
# Excerpt: Caki-2 cell line derived from proximal tubular epithelium, HaCaT keratinocyte cell line derived from adult skin, ARPE-19 retinal pigment epithelial cell line, Caco-2 cell line derived from colon cancer, and HIEC-6 cell line derived from normal human small intestinal epithelial cells were obtained from the American Type Culture Collection (American Type Culture Collection; Manassas, VA). RPMI 1640 culture medium was purchased from Sigma-Aldrich (St. Louis, Missouri) and fetal bovine serum (FBS) was purchased from Bio Whittaker (Bio Whittaker; Walkersville, Maryland). L-glutamine, penicillin, and streptomycin were obtained from Invitrogen (Carlsbad, California). Caki-2 cells, Caco-2 cells, and ihPOD cells were cultured in RPMI 1640 culture medium, HaCaT cells in DMEM culture medium, ARPE-19 cells in DMEM/F12 culture medium, and HIEC-6 cells in DMEM culture medium.
# Each cell line was cultured until subconfluent to examine caspase-3 cleavage by Western blotting. […] Cells were stimulated with 10 μg/mL of a scrambled peptide, corisin, or corisin-like peptide, cultured for 24 hours, and then Western blotting was performed.
# [6] = Half-life of corisin in A549 cell culture medium; conditions: A549 alveolar epithelial cell culture (cell supernatant), human alveolar (A549) cell culture system, read-out: half-life in the solution
# Description: In order to ascertain how quickly corisin is metabolized in a cell culture system, the half-life of corisin was investigated. A549 alveolar epithelial cells were cultured in DMEM to which 10% fetal bovine serum had been added until confluent. Next, corisin was inoculated into a cell culture medium at a final concentration of 10 micrograms/mL, and cell supernatant was collected after 0, 1, 3, 6, 12, and 24 hours. The concentration of corisin was measured by an enzyme immunoassay method, and the half-life of corisin was examined. […] Therefore, serum corisin measurements should be performed immediately after the onset of acute exacerbation.
# [7] = test system: mice having established pulmonary fibrosis; conditions: cited from earlier work
# [8] = test system: peptidase fraction prepared from Staphylococcus nepalensis culture supernatant (putative serine protease); format: biochemical
# [9] = BLM mice, 300 μg/mouse intratracheal, vs scrambled peptide
# [10] = BLM mice, corisin vs scrambled peptide
compound,measurement,setting,value
"CC[C@H](C)[C@H](N)C(=O)N[C@H](C(=O)N[C@@H](CCSC)C(=O)N1CCC[C@H]1C(=O)N[C@@H](CCC(=O)O)C(=O)N[C@@H](CO)C(=O)N[C@@H](CO)C(=O)NCC(=O)N[C@@H](CC(N)=O)C(=O)N1CCC[C@H]1C(=O)N[C@@H](CC(N)=O)C(=O)N[C@@H](C)C(=O)N[C@H](C(=O)N[C@@H](CC(N)=O)C(=O)N1CCC[C@H]1C(=O)N[C@@H](C)C(=O)NCC(=O)N[C@@H](Cc1ccc(O)cc1)C(=O)N[C@@H](CCCNC(=N)N)C(=O)O)C(C)C)C(C)C [corisin, IVMPESSGNPNAVNPAGYR] (H-IVMPESSGNPNAVNPAGYR-OH; N-terminus and C-terminus assumed)",concentration at which apoptotic activity is shown,[1],10 pg/mL
same,concentration at which apoptotic activity is shown,[1]; A549 cells,1e+07 pg/mL
same,apoptosis-inducing activity compared to the Staphylococcus haemolyticus peptide,"[1]; synthetic peptides, A549 cells, FIG. 3",slightly higher
same,mRNA expression of anti-apoptotic factors,[2],significantly reduced
same,mRNA expression of pro-apoptotic factors such as Bax and APAF-1,[2],significantly increased
same,CT findings after intratracheal corisin,[3],significantly worse
same,circulation level of serum amyloid P component,[4]; [9],increased
same,level of MUC-1,[4]; [9],increased
same,level of collagen I,[4]; [9],increased
same,level of monocyte chemoattractant protein-1 (MCP-1),[4]; [9],increased
same,level of osteopontin,[4]; [9],increased
same,level of periostin,[4]; [9],increased
same,total number of lymphocytes in BALF,[4]; [9],increased significantly
same,collagen deposition in the lungs,[4]; [10],increased
same,hydroxyproline content in the lungs,[4]; [10],increased
same,caspase-3 cleavage (Western blotting),"[4]; BLM mice, intratracheal corisin vs scrambled peptide",significantly increased
same,changes in mice administered physiological saline via osmotic minipump,[4]; SAL pump mice without fibrosis,no significant changes
same,CT scores after intratracheal corisin,[4]; WT mice with BLM-induced pulmonary fibrosis,worsened significantly
same,CT scores after intratracheal corisin,[4]; mice without pulmonary fibrosis (SAL pump),did not change
same,cleavage of caspase-3,[5],significantly increased
same,half-life at 10 micrograms/mL,[6],< 1 h
same,effect of intrapulmonary administration,[7],causes apoptosis of alveolar epithelial cells and acute exacerbation (AE)
Cl.NCCc1ccc(S(=O)(=O)F)cc1 [Pefabloc SC],suppression of transglycosylase degradation,"[8]; 0.1, 0.3, 1 mM, 37° C. for 0.5, 1 and 2 hours",suppress transglycosylase degradation
IVMPESSGNPNAVNAAGYR [corisin P15A],apoptotic activity compared with the parent corisin sequence,[1],devoid of apoptotic activity
"O=C(O)CN(CCN(CC(=O)O)CC(=O)O)CC(=O)O [EDTA, ethylenediaminetetraacetic acid]",suppression of transglycosylase degradation,[8],neither E-64 nor EDTA suppressed transglycosylase degradation
IVMPESSGNPNAVSPAGYR [corisin N14S],apoptotic activity compared with the parent corisin sequence,[1],devoid of apoptotic activity
